# Patent US20130260391A1, “Method Of Determining The Protease Cathepsin B In A Biological Sample” (priority 2010, published 2013)
# Target: T1, cathepsin B (Homo sapiens, UniProt P07858)
# T1 construct: Conversion of procathepsin B in the sample into the active form of cathepsin B; from tissue; host or cells: serum sample
# Test: enzyme assay of cathepsin B activity in deinhibited serum sample with substrate Z-Arg-Arg-AFC (fluorescence)
# Assay type: biochemical
# Settings: inhibitor added to the enzyme assay after withdrawing the protease inhibitor; compared with the signal before withdrawing the inhibitor
# Description: 6) Measuring the activity of cathepsin B in the sample
# To 110 μl of the serum samples, which have been treated as described, in 0.5 ml reaction vessels 110 μl of a solution of the substrate (70 μM Z-Arg-Arg-AFC) are added, the pH-value of which is set at pH=6 by phosphate buffer and which contains 5 mM EDTA and 10 mM DTE. After mixing the samples are incubated for 120 min at 37° C. Subsequently the reaction vessels are cooled down with ice, centrifuged for a short time so as to bring the water condensed at the cap of the reaction vessel back to the solution and then the fluorescence emission is recorded, either on a microtiter plate by means of a fluorescence reader or in a cuvette by means of a fluorimeter. The excitation wavelength is at about 400 nm, and a suitable detection wavelength is at about 505 nm.
# Thus evidence is established that the value measured in the enzyme assay after withdrawing the inhibitor relates to cathepsin B which is set free.
row,SMILES,measurement signal of the enzyme assay after addition of the inhibitor
1,CCCNC(=O)[C@H]1O[C@@H]1C(=O)N[C@H](C(=O)N1CCC[C@H]1C(=O)O)[C@@H](C)CC [CA-074],"the same as the measuring signal, which is obtained, when the enzyme assay is carried out before withdrawing the inhibitor"
2,CC(C)C[C@H](NC(=O)[C@H]1O[C@@H]1C(=O)O)C(=O)NCCCCN=C(N)N [E 64],"the same as the measuring signal, which is obtained, when the enzyme assay is carried out before withdrawing the inhibitor"
